Where a name gives a salt, the structure may show the parent alone.
System: mice
Experiment: Conditioned reaction of passive avoidance (CPRA), amnesia by electric shock
Assay type: in vivo
Conditions: for Latent period after training: 24 h, amnesia control 31.1; for % effect (latent period): control + amnesia 91.2, w/o amnesia 288.1; for Δt, increase in latent period (t ± m, sec): amnesia control -3 ± 6
Excerpt: The effect produced by the new substance on the processes of the central nervous system was examined on the model of one-time training of mice, of conditioned reaction of passive avoidance (CPRA), where the amnesic effect was produced by electric shock. During the tests, a two-section chamber was used to condition a certain reflex to the lit and darkened sections. First, for two minutes, the amount of time was registered, that a mouse spent in the lit section before entering the darkened section. Then, while in the darkened section, the animal would receive a single electric shock through the electrode floor (training). The training was immediately followed by an electric shock (50 Hz, 0.2 see). […] The substance was intraperitoneally administered 40 min. prior to the start of the training, the control group received a physiological solution. […] The anti-amnesic properties of the new compound are represented by an increase in the latent period before and after the training. (Δt)

## CC(C)(CO)C(=O)C(=O)NCCCC(=O)O [KPA-Ca, calcium salt of ketopantoyl aminobutyrate]
10 mg/kg i.p., 40 min before training
  Latent period before training: 27.1 s
10 mg/kg i.p.
  Latent period after training: 90.3 s
  % effect (latent period): 334.4%
10 mg/kg i.p., spread 12.6, P < 0.01
  Δt, increase in latent period (t ± m, sec): 63.2 s
25 mg/kg i.p.
  Latent period before training: 31.4 s
  Latent period after training: 102.4 s
  % effect (latent period): 396.1%
25 mg/kg i.p., P < 0.001
  Δt, increase in latent period (t ± m, sec): 71 ± 9 s
50 mg/kg i.p.
  Latent period before training: 30.6 s
  Latent period after training: 77.8 s
  % effect (latent period): 254.2%
50 mg/kg i.p., spread 13.3, P < 0.01
  Δt, increase in latent period (t ± m, sec): 47.2 s
100 mg/kg i.p.
  Latent period before training: 31.8 s
  Latent period after training: 82.8 s
  % effect (latent period): 260.4%
100 mg/kg i.p., P < 0.01
  Δt, increase in latent period (t ± m, sec): 51 ± 14.1 s
Electric shock amnesia
  anti-amnesic effect (in words): counteracted the amnesic effect of the electric shock
